Test [1] deals with T1, acyl-CoA: cholesterol acyltransferase (ACAT) (Rattus norvegicus, UniProt Q7TQM4).
T1 construct: tissue preparation containing rat liver microsomes; from tissue; host or cells: rat liver microsomes
T1 sequence (Q7TQM4 1-524): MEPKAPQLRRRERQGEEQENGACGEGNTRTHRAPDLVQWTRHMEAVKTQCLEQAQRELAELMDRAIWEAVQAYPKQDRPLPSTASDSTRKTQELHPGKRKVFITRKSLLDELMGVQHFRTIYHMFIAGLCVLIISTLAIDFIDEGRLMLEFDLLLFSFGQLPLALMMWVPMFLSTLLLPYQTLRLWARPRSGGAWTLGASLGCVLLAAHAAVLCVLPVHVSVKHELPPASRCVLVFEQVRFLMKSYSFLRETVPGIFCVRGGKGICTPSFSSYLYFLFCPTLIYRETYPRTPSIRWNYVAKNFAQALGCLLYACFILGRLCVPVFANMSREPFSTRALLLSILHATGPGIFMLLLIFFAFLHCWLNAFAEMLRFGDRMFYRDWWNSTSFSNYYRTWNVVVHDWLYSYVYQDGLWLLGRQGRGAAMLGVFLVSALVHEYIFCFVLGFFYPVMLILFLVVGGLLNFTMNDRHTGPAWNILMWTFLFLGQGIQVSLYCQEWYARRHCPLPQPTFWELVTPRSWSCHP
Nature of the test: In vitro inhibition of acylation of cholesterol by oleic acid (LAI), rat liver microsomes. The class given is biochemical. The conditions noted are these: radiolabeled oleic acid. The method, then:
The ability of representative compounds of the present invention to inhibit ACAT was measured using an in vitro test more fully described in Field F J, Salone R G, Biochemica et Biophysica 1982; 712:557-570. The test assesses the ability of a test compound to inhibit the acylation of cholesterol by oleic acid by measuring the amount of radiolabeled cholesterol oleate formed from radiolabeled oleic acid in a tissue preparation containing rat liver microsomes.
On the technique in general: Microsomes from liver hold many membrane-bound enzymes, among them those of drug oxidation.

Test [2] concerns Plasma TC. The test is described as follows: in vivo screen designated APCC (high fat, high cholesterol diet, plasma cholesterol). The following applies: rats, PCC diet with 0.5% cholic acid overnight, vehicle CMC/Tween. Details: species or system male Sprague-Dawley rats. The text has this:
In one in vivo screen designated APCC, male Sprague-Dawley rats (200 to 225 g) were randomly divided into treatment groups and dosed at 4 PM with either vehicle (CMC/Tween) or suspensions of compounds in vehicle. The normal chow diet was then replaced with a high fat, high cholesterol diet (designated PCC) containing 0.5% cholic acid. The rats consumed this diet ad libitum during the night and were sacrificed at 8 AM to obtain blood samples for cholesterol analysis using standard procedures. Statistical differences between mean cholesterol values for the same vehicle were determined using analysis of variance followed by Fisher's least significant test.

Where [3] appears, read: Rattus norvegicus, dose 10 mg/kg.

Structures can show the parent of a compound that is named as a salt. Where only a bound is given, the exact number is not on record here.

For the compound `CC(C)c1cc(C(C)C)c(CC(=O)NS(=O)(=O)Oc2c(C(C)C)cc(NC(=O)[C@H](CCCCNC(=O)OC(C)(C)C)NC(=O)OC(C)(C)C)cc2C(C)C)c(C(C)C)c1` [Example 1, (S)-[5-tert-Butoxycarbonylamino-5-(3,5-diisopropyl-4-{[(2,4,6-triisopropyl-phenyl)-acetyl]-sulfamoyloxy}-phenylcarbanoyl)-pentyl]-carbamic acid tert-butyl ester], it took 23 µM to reach half-maximal inhibition in test [1] (IC50). The change in vivo at 1 mg/kg in test [2] (Rattus norvegicus, dose 1 mg/kg) was found to be 7%.
Take `CC(C)c1cc(C(C)C)c(CC(=O)NS(=O)(=O)Oc2c(C(C)C)cc(NC(=O)[C@@H](N)CCCCN)cc2C(C)C)c(C(C)C)c1` [Example 2, (S)-[(2,4,6-Triisopropyl-phenyl)-acetyl]-sulfamic acid 4-(2,6-diamino-hexanoylamino)-2,6-diisopropyl-phenyl ester dihydrochloride]: in test [1], the IC50 (as a rule, the concentration needed to halve the response being measured) was over 50 µM. Further, in test [2] (setting [3]), the change in vivo at 10 mg/kg was -60%.
With `CC(C)c1cc(C(C)C)c(CC(=O)NS(=O)(=O)Oc2c(C(C)C)cc(NC(=O)CNC(=O)OC(C)(C)C)cc2C(C)C)c(C(C)C)c1` [Example 3], in test [1], half-maximal inhibition (IC50) required 18 µM. The change in vivo at 30 mg/kg in test [2] (Rattus norvegicus) is -40%.
In test [1], `CC(C)c1cc(C(C)C)c(CC(=O)NS(=O)(=O)Oc2c(C(C)C)cc(NC(=O)CN)cc2C(C)C)c(C(C)C)c1` [Example 4, [(2,4,6-Triisopropyl-phenyl)-acetyl]-sulfamic acid 4-(2-amino-acetylamino)-2,6-diisopropyl-phenyl ester] came in with an IC50 of 48 µM. The change in vivo at 10 mg/kg in test [2] (setting [3]) is -65%.
In test [1], `CSCCC(N)C(=O)Nc1cc(C(C)C)c(OS(=O)(=O)NC(=O)Cc2c(C(C)C)cc(C(C)C)cc2C(C)C)c(C(C)C)c1` (centres unmarked) [Example 6, [(2,4,6-Triisopropyl-phenyl)-acetyl]-sulfamic acid 4-(2-amino-4-methylsulfanyl-butyrylamino)-2,6-diisopropyl-phenyl ester trifluoroacetate] showed an IC50 of 750 µM. In addition, in test [2] (setting [3]), the change in vivo at 10 mg/kg is -72%.
With `CCOC(=O)CCNC(=O)Nc1cc(C(C)C)c(OS(=O)(=O)NC(=O)Cc2c(C(C)C)cc(C(C)C)cc2C(C)C)c(C(C)C)c1` [Example 7], the IC50 in test [1] amounted to 49 µM. In addition, the change in vivo at 30 mg/kg in test [2] (Rattus norvegicus) was -30%.
In test [1], `CC(C)c1cc(C(C)C)c(CC(=O)NS(=O)(=O)Oc2c(C(C)C)cc(NC(=O)NCCC(=O)O)cc2C(C)C)c(C(C)C)c1` [Example 8] showed an IC50 of over 50 µM. The change in vivo at 10 mg/kg in test [2] (setting [3]) is -15%.
On the same counts, the results for `CC(C)c1cc(C(C)C)c(CC(=O)NS(=O)(=O)Oc2c(C(C)C)cc(NC(=O)C(N)Cc3c[nH]c4ccccc34)cc2C(C)C)c(C(C)C)c1` (centres unmarked) [Example 9] are 24 µM and -25%.
For the compound `CC(C)c1cc(C(C)C)c(CC(=O)NS(=O)(=O)Oc2c(C(C)C)cc(NC(=O)CCCCN)cc2C(C)C)c(C(C)C)c1` [Example 10, [(2,4,6-Triisopropyl-phenyl)-acetyl]-sulfamic acid 4-(5-amino-pentanoylamino)-2,6-diisopropyl-phenyl ester trifluoroacetate(1:1) (salt)], in test [2] (setting [3]), the change in vivo at 10 mg/kg was -15%.
Consider `CC(C)c1cc(C(C)C)c(CC(=O)NS(=O)(=O)Oc2c(C(C)C)cc(OCCCN(C)C)cc2C(C)C)c(C(C)C)c1.Cl` [Example 15, [(2,4,6-Triisopropyl-phenyl)-acetyl]-sulfamic acid 4-(3-dimethylamino-propoxy)-2,6-diisopropyl-phenyl ester hydrochloride salt], for which the “APCC % Change in Plasma TC” value in test [2] (dose 10 mg/kg) was -26%.
For `CC(C)c1cc(C(C)C)c(CC(=O)NS(=O)(=O)Oc2c(C(C)C)cc(NCCO)cc2C(C)C)c(C(C)C)c1` [Example 27, [(2,4,6-Triisopropyl-phenyl)-acetyl]-sulfamic acid 4-(2-hydroxy-ethylamino)-2,6-diisopropyl-phenyl ester], the IC50 in test [1] amounted to 43 µM.
Still for that read-out and setting: with `CC(C)c1cc(C(C)C)c(CC(=O)NS(=O)(=O)Oc2c(C(C)C)cc(S(N)(=O)=O)cc2C(C)C)c(C(C)C)c1` [Example 35, [(2,4,6-Triisopropyl-phenyl)-acetyl]-sulfamic acid 2,6-diisopropyl-4-sulfamoyl-phenyl ester] the figure was 50 µM.
